Article PMC5590679 (Journal of medicinal chemistry, 2017)

Tested on: Mtb BioA overexpression strain (BioA-OE)
Assay: microbe, parasite or virus in culture
Format: cell-based, Mycobacterium tuberculosis

In the case of CC(=O)c1ccc(N2CCN(C(=O)c3ccc4c(c3)OCO4)CC2)cc1 [Compound 6, 1-(4-(4-(Benzo[d][1,3]dioxole-5-carbonyl)piperazin-1-yl)phenyl)-ethanone], the MIC (Mycobacterium tuberculosis, read-out: MIC that results in 90% inhibition, BioA-OE) is reported as greater than 50 µM.

“(3-Chlorophenyl)(4-(5-methoxypyridin-2-yl)piperazin-1-yl)-methanone [Compound 22]” was tested, and the “MIC50 BioA-OE” value (MIC that results in 50% inhibition, […]) was greater than 50 µM.
